Data taken from ChEMBL document CHEMBL1156449, “The nucleoside analog sangivamycin induces apoptotic cell death in breast carcinoma MCF7/adriamycin-resistant cells via protein kinase Cdelta and JNK activation” (J Biol Chem, 2007).
The source made the active and inactive calls. The rule behind the calls is not given here.

Columns and labels:
MCF/ADR [1] = assay: Cytocidal effect in human multidrug resistant MCF/ADR cells assessed as decrease in number of viable cells at 30 nM after 6 days by MTT colorimetric assay; format: functional, cell-based
[2] = Effect on cell morphology in human multidrug resistant MCF/ADR cells assessed as floating cells with intact plasma membrane at 0.3 uM after 72 hrs by trypan blue dye exclusion test; format: functional
[3] = Cell cycle arrest in human drug-sensitive MCF/WT cells assessed as accumulation at sub G0/G1 phase at 0.3 uM after 24 hrs by propidium fluorescence flow cytometry; format: functional, cell-based
[4] = Cell cycle arrest in human drug-sensitive MCF/WT cells assessed as accumulation at G0/G1 phase at 0.3 uM after 24 hrs by propidium fluorescence flow cytometry; format: functional, cell-based
[5] = Cell cycle arrest in human drug-sensitive MCF/WT cells assessed as accumulation at G0/G1 phase at 0.3 uM after 48 hrs by propidium fluorescence flow cytometry; format: functional, cell-based
[6] = Cell cycle arrest in human drug-sensitive MCF/WT cells assessed as accumulation at S phase at 0.3 uM after 48 hrs by propidium fluorescence flow cytometry; format: functional, cell-based
[7] = Cell cycle arrest in human drug-sensitive MCF/WT cells assessed as accumulation at G2/M phase at 0.3 uM after 48 hrs by propidium fluorescence flow cytometry; format: functional, cell-based
[8] = Cell cycle arrest in human drug-sensitive MCF/WT cells assessed as accumulation at G2/M phase at 0.3 uM after 72 hrs by propidium fluorescence flow cytometry; format: functional, cell-based
[9] = Cell cycle arrest in human multidrug resistant MCF/ADR cells assessed as accumulation at G2/M phase at 0.3 uM after 24 hrs by propidium fluorescence flow cytometry; format: functional, cell-based
[10] = Cell cycle arrest in human multidrug resistant MCF/ADR cells assessed as accumulation at sub G0/G1 phase at 0.3 uM after 48 hrs by propidium fluorescence flow cytometry; format: functional, cell-based
[11] = Cell cycle arrest in human multidrug resistant MCF/ADR cells assessed as accumulation at S phase at 0.3 uM after 48 hrs by propidium fluorescence flow cytometry; format: functional, cell-based
[12] = Cell cycle arrest in human multidrug resistant MCF/ADR cells assessed as accumulation at G2/M phase at 0.3 uM after 48 hrs by propidium fluorescence flow cytometry; format: functional, cell-based
[13] = Cell cycle arrest in human multidrug resistant MCF/ADR cells assessed as accumulation at G0/G1 phase at 0.3 uM after 72 hrs by propidium fluorescence flow cytometry; format: functional, cell-based
MCF/WT [14] = assay: Induction of apoptosis in human drug sensitive MCF/WT cells assessed as propidium iodide binding to phosphatidylserine at 0.3 uM after 6 hrs; format: functional, cell-based
MCF/ADR [15] = assay: Decrease in p53 accumulation in human multidrug resistant MCF/ADR cells at 0.3 uM after 72 hrs by immunoblot analysis; format: functional, cell-based
MCF/WT [16] = assay: Increase in wild-type full length p53 accumulation in human drug-sensitive MCF/WT cells at 0.3 uM by immunoblot analysis; format: functional, cell-based
MCF/ADR [17] = assay: Increase in p21CIP accumulation in human multidrug resistant MCF/ADR cells at 0.3 uM after 48 hrs by immunoblot analysis; format: functional, cell-based
MCF/WT [18] = assay: Increase in Bcl-x/l levels in human drug-sensitive MCF/WT cells at 0.3 uM by immunoblot analysis; format: functional, cell-based
MCF/ADR [19] = assay: Increase in Bcl-x/l levels in human multidrug resistant MCF/ADR cells at 0.3 uM by immunoblot analysis; format: functional, cell-based
[20] = target: T1, c-Jun N-terminal kinase, JNK (Homo sapiens) (UniProt P45983+P53779+P45984); assay: Inhibition of induction of JNK phosphorylation in human multidrug resistant MCF/ADR cells at 0.3 uM after 48 hrs by immunocytochemical analysis in presence of rottlerin; format: cell-based
[21] = target: T1, c-Jun N-terminal kinase, JNK (Homo sapiens); assay: Induction of JNK phosphorylation in human multidrug resistant MCF/ADR cells transfected with PKCdelta siRNA at 0.3 uM after 48 hrs by immunocytochemical analysis; format: cell-based
MCF/ADR [22] = assay: Reduction in induction of apoptosis in SP600125 pretreated human multidrug resistant MCF/ADR cells assessed as reduction of cleavage of PARP at 0.3 uM after 48 hrs by immunoblot analysis; format: functional, cell-based
[23] = target: Transcription factor Jun (Homo sapiens) (UniProt P05412); assay: Reduction in induction of c-Jun expression in human multidrug resistant MCF/ADR cells at 0.3 uM after 48 hrs by immunoblot analysis in presence of caspase 9 inhibitor; format: cell-based
Transcription factor Jun (Homo sapiens), sequence (P05412 whole entry): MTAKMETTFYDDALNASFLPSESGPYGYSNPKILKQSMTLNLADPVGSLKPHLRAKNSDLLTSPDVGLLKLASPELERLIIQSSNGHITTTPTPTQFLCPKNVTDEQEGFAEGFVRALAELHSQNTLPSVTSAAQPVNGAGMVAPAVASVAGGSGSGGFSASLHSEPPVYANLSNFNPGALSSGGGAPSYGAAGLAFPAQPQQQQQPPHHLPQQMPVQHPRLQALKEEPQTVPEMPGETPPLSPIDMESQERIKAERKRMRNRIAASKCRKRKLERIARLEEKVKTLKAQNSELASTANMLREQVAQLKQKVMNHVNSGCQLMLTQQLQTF

MCF/WT [24] = assay: Increase in Bcl-x/s levels in human drug-sensitive MCF/WT cells at 0.3 uM by immunoblot analysis; format: functional, cell-based
MCF/ADR [25] = assay: Increase in Bcl-x/s levels in human multidrug resistant MCF/ADR cells at 0.3 uM by immunoblot analysis; format: functional, cell-based
MCF/WT [26] = assay: Induction of apoptosis in human drug-sensitive MCF/WT cells assessed as cleavage of lamin A at 0.3 uM by immunoblot analysis; format: functional, cell-based
MCF/ADR [27] = assay: Induction of apoptosis in human multidrug resistant MCF/ADR cells assessed as accumulation of PARP at 0.3 uM after 72 hrs by immunoblot analysis; format: functional, cell-based
MDA-MB-468 = assay: Induction of apoptosis in human multidrug resistant MDA-MB-468 cells assessed as accumulation of PARP at 0.3 uM after 48 hrs by immunoblot analysis; format: functional, cell-based
MCF/ADR [28] = assay: Induction of apoptosis in human multidrug resistant MCF/ADR cells assessed as activation of caspase 9 at 0.3 uM by immunoblot analysis; format: functional, cell-based
MCF/WT [29] = assay: Induction of apoptosis in human drug-sensitive MCF/WT cells assessed as cleavage of caspase 9 at 0.3 uM by immunoblot analysis; format: functional, cell-based
MCF/ADR [30] = assay: Inhibition of induction of apoptosis in human multidrug resistant MCF/ADR cells assessed as inhibition of cleavage of lamin A at 0.3 uM after 48 hrs by immunoblot analysis in presence of caspase 9-specific inhibitor; format: functional, cell-based
MCF/ADR [31] = assay: Reduction of lamin A cleavage in human multidrug resistant MCF/ADR cells transfected with c-Jun siRNA at 0.3 uM after 48 hrs by immunoblot analysis; format: functional, cell-based
MCF/ADR [32] = assay: Reduction of […] cleavage in human multidrug resistant MCF/ADR cells transfected with c-Jun siRNA at 0.3 uM after 48 hrs by immunoblot analysis; format: functional, cell-based
[33] = target: Bcl-2-like protein 1 (Homo sapiens) (UniProt Q07817); assay: Inhibition of induction of Bcl-x/s phosphorylation in human multidrug resistant MCF/ADR cells at 0.3 uM after 48 hrs in presence of SP600125; format: functional, cell-based
Bcl-2-like protein 1 (Homo sapiens), sequence (Q07817 whole entry): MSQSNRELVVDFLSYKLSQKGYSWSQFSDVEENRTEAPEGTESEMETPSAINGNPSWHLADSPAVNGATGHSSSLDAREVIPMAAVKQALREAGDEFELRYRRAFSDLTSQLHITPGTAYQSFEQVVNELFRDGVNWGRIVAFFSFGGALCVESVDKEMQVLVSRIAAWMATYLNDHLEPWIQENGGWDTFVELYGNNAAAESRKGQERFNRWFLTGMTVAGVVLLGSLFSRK

[34] = target: T1, c-Jun N-terminal kinase, JNK (Homo sapiens); assay: Induction of JNK activity in human multidrug resistant MCF/ADR cells assessed as mitochondrial localization of phosphorylated JNK with Bcl-x/l; format: cell-based
MCF/ADR [35] = assay: Reduction in induction of apoptosis in human multidrug resistant MCF/ADR cells assessed as suppression of PARP cleavage at 0.3 uM after 48 hrs by immunoblot analysis in presence of rottlerin; format: functional, cell-based
[36] = Inhibition of nuclear protein kinase 2
[37] = Reduction in induction of c-Jun expression in human multidrug resistant MCF/ADR cells at 0.3 uM after 48 hrs by immunoblot analysis in presence of rottlerin; format: functional, cell-based
MCF/ADR [38] = assay: Cytocidal effect in human multidrug resistant MCF/ADR cells assessed as decrease in number of viable cells at 0.1 uM after 72 hrs by MTT colorimetric assay; format: functional, cell-based

NC(=O)c1cn([C@@H]2O[C@H](CO)[C@@H](O)[C@H]2O)c2ncnc(N)c12 [SANGIVAMYCIN]
Activity (MCF/ADR [1]): Active
Activity [2]: 95%
Activity [3]: 1%
Activity [4]: 48%
Activity [5]: 61%
Activity [6]: 9%
Activity [7]: 27%
Activity [8]: 28%
Activity [9]: 33%
Activity [10]: 40%
Activity [11]: 23%
Activity [12]: 17%
Activity [13]: 17%
Activity (MCF/WT [14]): inactive
Activity (MCF/ADR [15]): Active
Activity (MCF/WT [16]): Active
Activity (MCF/ADR [17]): inactive
Activity (MCF/WT [18]): Active
Activity (MCF/ADR [19]): Active
Activity [20]: Active
Activity [21]: inactive
Activity (MCF/ADR [22]): Active
Activity [23]: inactive
Activity (MCF/WT [24]): Active
Activity (MCF/ADR [25]): Active
Activity (MCF/WT [26]): inactive
Activity (MCF/ADR [27]): Active
Activity (MDA-MB-468): Active
Activity (MCF/ADR [28]): Active
Activity (MCF/WT [29]): inactive
Activity (MCF/ADR [30]): Active
Activity (MCF/ADR [31]): inactive
Activity (MCF/ADR [32]): inactive
Activity [33]: Active
Activity [34]: Active
Activity (MCF/ADR [35]): Active
Ki [36]: 100 µM
Activity [37]: Active
Activity (MCF/ADR [38]): Active
